How the values were obtained:
Assay type in all cases: in vivo
[1] = test system: HORVS = barley (Hordeum vulare); assay: Postemergence herbicidal activity in cereal crops, barley; conditions: post-emergence, 480 h, post-emergent, barley (crop), after 20-22 days; for pest or weed control at 17.5 g/ha: 17.5 g ai/ha; for pest or weed control at 70 g/ha: 70 g ai/ha; for pest or weed control at 35 g/ha: 35 g ai/ha
Protocol: (§1) Seeds of the desired test plant species were planted in Sun Gro MetroMix® 306 planting mixture, which typically has a pH of 6.0 to 6.8 and an organic matter content of about 30 percent, in plastic pots with a surface area of 103.2 square centimeters. When required to ensure good germination and healthy plants, a fungicide treatment and/or other chemical or physical treatment was applied. The plants were grown for 7-36 days in a greenhouse with an approximate 14 hour photoperiod which was maintained at about 18° C. during the day and 17° C. during the night. Nutrients and water were added on a regular basis and supplemental lighting was provided with overhead metal halide 1000-Watt lamps as necessary. The plants were employed for testing when they reached the second or third true leaf stage.
(§2) A weighed amount, determined by the highest rate to be tested, of each test compound was placed in a 25 mL glass vial and was dissolved in 8 mL of a 97:3 v/v mixture of acetone and DMSO to obtain concentrated stock solutions. […] The concentrated stock solutions obtained were diluted with 16 mL of an aqueous mixture containing acetone, water, isopropyl alcohol, DMSO, Agri-dex crop oil concentrate, and Triton X-77 surfactant in a 64.7:26.0:6.7:2.0:0.7:0.01 v/v ratio to obtain spray solutions containing the highest application rates. Additional application rates were obtained by serial dilution of 12 mL of the high rate solution into a solution containing 4 mL of 97:3 v/v mixture of acetone and DMSO and 8 mL of an aqueous mixture containing acetone, water, isopropyl alcohol, DMSO, Agri-dex crop oil concentrate, and Triton X-77 surfactant in a 48.5:39.0:10.0:1.5:1.0:0.02 v/v ratio to obtain ½×, ¼×, ⅛× and 1/16× rates of the high rate. Compound requirements are based upon a 12 mL application volume at a rate of 187 L/ha. Formulated compounds were applied to the plant material with an overhead Mandel track sprayer equipped with a 8002E nozzles calibrated to deliver 187 L/ha over an application area of 0.503 square meters at a spray height of 18 inches (43 cm) above average plant canopy height. Control plants were sprayed in the same manner with the blank.
(§3) The treated plants and control plants were placed in a greenhouse as described above and watered by sub-irrigation to prevent wash-off of the test compounds. After 20-22 days, the condition of the test plants as compared with that of the untreated plants was determined visually and scored on a scale of 0 to 100 percent where 0 corresponds to no injury and 100 corresponds to complete kill.

GALAP = Galium aparine = assay: Postemergence herbicidal activity in cereal crops, Galium aparine; conditions: post-emergence, 480 h, post-emergent, after 20-22 days; for pest or weed control at 17.5 g/ha: 17.5 g ai/ha; for pest or weed control at 70 g/ha: 70 g ai/ha; for pest or weed control at 35 g/ha: 35 g ai/ha
Protocol: as §1, §2, §3

LAMPU = Lamium purpureum = assay: Postemergence herbicidal activity in cereal crops, Lamium purpureum; conditions: post-emergence, 480 h, post-emergent, after 20-22 days; for pest or weed control at 17.5 g/ha: 17.5 g ai/ha; for pest or weed control at 70 g/ha: 70 g ai/ha; for pest or weed control at 35 g/ha: 35 g ai/ha
Protocol: as §1, §2, §3

[2] = test system: ORYSA = rice (Orysa sativa var. Japonica); assay: Herbicidal activity in transplanted paddy rice, rice; conditions: Oryza sativa, 480 h, water-injected paddy, rice (crop), after 20-22 days; for pest or weed control at 70 g/ha: 70 g ai/ha; for pest or weed control at 35 g/ha: 35 g ai/ha; for pest or weed control at 140 g/ha: 140 g ai/ha; for pest or weed control at 17.5 g/ha: 17.5 g ai/ha
Protocol: (§4) Weed seeds or nutlets of the desired test plant species were planted in puddled soil (mud) prepared by mixing a non-sterilized mineral soil (28 percent silt, 18 percent clay, and 54 percent sand, with a pH of about 7.3 to 7.8 and an organic matter content of about 1.0 percent) and water at a ratio of 100 kg of soil to 19 L of water. The prepared mud was dispensed in 250 mL aliquots into 480 mL non-perforated plastic pots with a surface area of 91.6 square centimeters leaving a headspace of 3 centimeters in each pot. Rice seeds were planted in Sun Gro MetroMix® 306 planting mixture, which typically has a pH of 6.0 to 6.8 and an organic matter content of about 30 percent, in plastic plug trays. Seedlings at the second or third leaf stage of growth were transplanted into 650 mL of mud contained in 960 mL non-perforated plastic pots with a surface area of 91.6 square centimeters 4 days prior to herbicide application. The paddy was created by filling the 3 centimeter headspace of the pots with water. When required to ensure good germination and healthy plants, a fungicide treatment and/or other chemical or physical treatment was applied. The plants were grown for 4-14 days in a greenhouse with an approximate 14 hour photoperiod which was maintained at about 29° C. during the day and 26° C. during the night. Nutrients were added as Osmocote (17:6:10, N:P:K+minor nutrients) at 2 g (grams) per cup. Water was added on a regular basis to maintain the paddy flood, and supplemental lighting was provided with overhead metal halide 1000-Watt lamps as necessary. The plants were employed for testing when they reached the second or third true leaf stage. A weighed amount, determined by the highest rate to be tested, of each test compound was placed in a 120 mL glass vial and was dissolved in 20 mL of acetone to obtain concentrated stock solutions. […] The concentrated stock solutions obtained were diluted with 20 mL of an aqueous mixture containing 0.01% Tween 20 (v/v). Application rates of ½×, ¼×, ⅛× and 1/16× of the high rate were obtained by injecting an appropriate amount of the stock solution into the aqueous layer of the paddy. Control plants were treated in the same manner with the solvent blank. The treated plants and control plants were placed in a greenhouse as described above and water was added as needed to maintain a paddy flood. After 20-22 days, the condition of the test plants as compared with that of the untreated plants was determined visually and scored on a scale of 0 to 100 percent where 0 corresponds to no injury and 100 corresponds to complete kill.

[3] = test system: SCPJU = Scirpus juncoides; assay: Herbicidal activity in transplanted paddy rice, Scirpus juncoides; conditions: Schoenoplectiella juncoides, 480 h, water-injected paddy, after 20-22 days; for pest or weed control at 70 g/ha: 70 g ai/ha; for pest or weed control at 35 g/ha: 35 g ai/ha; for pest or weed control at 140 g/ha: 140 g ai/ha; for pest or weed control at 17.5 g/ha: 17.5 g ai/ha
Protocol: as §4

[4] = test system: CYPDI = Cyperus difformis; assay: Herbicidal activity in transplanted paddy rice, Cyperus difformis; conditions: 480 h, water-injected paddy, after 20-22 days; for pest or weed control at 70 g/ha: 70 g ai/ha; for pest or weed control at 35 g/ha: 35 g ai/ha; for pest or weed control at 140 g/ha: 140 g ai/ha; for pest or weed control at 17.5 g/ha: 17.5 g ai/ha
Protocol: as §4

[5] = test system: MOOVA = Monochoria vaginalis; assay: Herbicidal activity in transplanted paddy rice, Monochoria vaginalis; conditions: Pontederia vaginalis, 480 h, water-injected paddy, after 20-22 days; for pest or weed control at 70 g/ha: 70 g ai/ha; for pest or weed control at 35 g/ha: 35 g ai/ha; for pest or weed control at 140 g/ha: 140 g ai/ha; for pest or weed control at 17.5 g/ha: 17.5 g ai/ha
Protocol: as §4

Compound | pest or weed control at 17.5 g/ha [1] | pest or weed control at 17.5 g/ha (GALAP = Galium aparine) | pest or weed control at 17.5 g/ha (LAMPU = Lamium purpureum) | pest or weed control at 70 g/ha [1] | pest or weed control at 70 g/ha (GALAP = Galium aparine) | pest or weed control at 70 g/ha (LAMPU = Lamium purpureum) | pest or weed control at 35 g/ha [1] | pest or weed control at 35 g/ha (GALAP = Galium aparine) | pest or weed control at 35 g/ha (LAMPU = Lamium purpureum) | pest or weed control at 17.5 g/ha [2] | pest or weed control at 17.5 g/ha [4] | pest or weed control at 17.5 g/ha [5] | also measured
COC(=O)c1nc(-c2ccc(Cl)c(OC)c2F)nc(N)c1Br [Compound 13, 6-amino-5-bromo-2-(4-chloro-2-fluoro-3-methoxyphenyl)-pyrimidine-4-carboxylic acid methyl ester] | 0% | 90% | 95% |  |  |  |  |  |  |  |  |  | pest or weed control at 70 g/ha [2]: 0%; pest or weed control at 70 g/ha [3]: 60%; pest or weed control at 70 g/ha [4]: 85%; pest or weed control at 70 g/ha [5]: 100%
COC(=O)c1nc(-c2ccc3c(c2F)OCO3)nc(N)c1Cl [Compound 9, 6-Amino-5-chloro-2-(4-fluorobenzo[1,3]dioxol-5-yl)pyrimidine-4-carboxylic acid methyl ester] |  |  |  | 0% | 90% | 100% |  |  |  |  |  |  | pest or weed control at 35 g/ha [2]: 0%; pest or weed control at 35 g/ha [3]: 70%; pest or weed control at 35 g/ha [4]: 100%; pest or weed control at 35 g/ha [5]: 99%
COC(=O)c1nc(-c2c(F)cc(Cl)c(OC)c2F)nc(N)c1Cl [Compound 2, 6-amino-5-chloro-2-(4-chloro-2,6-difluoro-3-methoxy-phenyl)pyrimidine-4-carboxylic acid methyl ester] |  |  |  |  |  |  | 0% | 95% | 95% |  |  |  | pest or weed control at 70 g/ha [2]: 0%; pest or weed control at 70 g/ha [3]: 20%; pest or weed control at 70 g/ha [4]: 75%; pest or weed control at 70 g/ha [5]: 100%
COC(=O)c1nc(-c2ccc(Cl)c(C(F)F)c2F)nc(N)c1Cl [Compound 7, 6-Amino-5-chloro-2-(4-chloro-3-difluoromethyl-2-fluorophenyl)pyrimidine-4-carboxylic acid methyl ester] | 0% | 60% | 90% |  |  |  |  |  |  |  |  |  | pest or weed control at 140 g/ha [2]: 0%; pest or weed control at 140 g/ha [3]: 90%; pest or weed control at 140 g/ha [4]: 100%; pest or weed control at 140 g/ha [5]: 100%
CCOc1c(Cl)ccc(-c2nc(N)c(Cl)c(C(=O)OC)n2)c1F [Compound 1, 6-amino-5-chloro-2-(4-chloro-3-ethoxy-2-fluorophenyl)-pyrimidine-4-carboxylic acid methyl ester] |  |  |  |  |  |  | 0% | 99% | 85% | 5% | 95% | 100% | pest or weed control at 17.5 g/ha [3]: 50%
COC(=O)c1nc(-c2ccc(Cl)c(N(C)C)c2F)nc(N)c1Cl [Compound 8, 6-Amino-5-chloro-2-(4-chloro-3-dimethylamino-2-fluorophenyl)pyrimidine-4-carboxylic acid methyl ester] |  |  |  |  |  |  | 0% | 70% | 85% |  |  |  | pest or weed control at 35 g/ha [2]: 0%; pest or weed control at 35 g/ha [3]: 10%; pest or weed control at 35 g/ha [4]: 95%; pest or weed control at 35 g/ha [5]: 100%
COC(=O)c1nc(-c2ccc(Cl)c(OCC(F)F)c2F)nc(N)c1Cl [Compound 10, 6-Amino-5-chloro-2-[4-chloro-3-(2,2-difluoroethoxy)-2-fluorophenyl]-pyrimidine-4-carboxylic acid methyl ester] |  |  |  | 0% | 65% | 85% |  |  |  |  |  |  | pest or weed control at 140 g/ha [2]: 0%; pest or weed control at 140 g/ha [3]: 40%; pest or weed control at 140 g/ha [4]: 95%; pest or weed control at 140 g/ha [5]: 100%
COC(=O)c1nc(-c2ccc(Cl)c(OC)c2F)nc(N)c1Cl [Compound 3, 6-amino-5-chloro-2-(4-chloro-2-fluoro-3-methoxyphenyl)-pyrimidine-4-carboxylic acid methyl ester] | 0% | 95% | 99% |  |  |  |  |  |  | 0% | 99% | 100% | pest or weed control at 17.5 g/ha [3]: 80%
COC(=O)c1nc(-c2ccc(Cl)c(OC)c2Cl)nc(N)c1Cl [Compound 6, 6-Amino-5-chloro-2-(2,4-dichloro-3-methoxyphenyl)pyrimidine-4-carboxylic acid methyl ester] |  |  |  | 0% | 85% | 99% |  |  |  | 0% | 90% | 100% | 

Reference: US9199943B2, “2-(poly-substituted aryl)-6-amino-5-halo-4-pyrimidinecarboxylic acids and their use as herbicides” (Dow AgroSciences, LLC., priority 2006, dated 2015)
